Data: ChEMBL document CHEMBL3885861, “Open TG-GATES”

Organism: Rattus norvegicus
Test: Open TG-GATES - Regimen: Single
Format: toxicity, organism-based, Sprague-Dawley
Design: regimen Single, gender Male, age 6 weeks
Conditions: in vivo, po, route gavage; for APTT / Bas / Eos / Fbg / Hb / Ht / Lym / MCH / MCHC / MCV / Mono / Neu / PT / RBC / Ret / WBC / Plat: tissue Blood; for KIDNEY_L / KIDNEY_R / KIDNEY_TOTAL: tissue Kidney; for ALP / ALT / AST / BUN / CRE / Ca / DBIL / GLC / K / LDH / Na / PL / RALB / TBIL / TC / TG / TP / gamma-GTP / IP: tissue Plasma; for LIVER: tissue Liver
[1] = 50 mg/kg, 3 h, dose level Middle

`Oc1ncnc2[nH]ncc12` [ALLOPURINOL] showed an APTT (15 mg/kg, 3 h, dose level Low) of 16.3 s, a Bas (15 mg/kg, 3 h, dose level Low) of 0% and an Eos (15 mg/kg, 3 h, dose level Low) of 1%. It also gave a Fbg (15 mg/kg, 3 h, dose level Low) of 209.6 mg/dL, a Hb (15 mg/kg, 3 h, dose level Low) of 13.9 g/dL and a Ht (15 mg/kg, 3 h, dose level Low) of 41.2%. For the same compound, the Lym (15 mg/kg, 3 h, dose level Low) was 80.4%, the MCH (15 mg/kg, 3 h, dose level Low) was 22 pg and the MCHC (15 mg/kg, 3 h, dose level Low) was 33.8%. It also gave an MCV (15 mg/kg, 3 h, dose level Low) of 65 fL, a Mono (15 mg/kg, 3 h, dose level Low) of 7.4% and a Neu (15 mg/kg, 3 h, dose level Low) of 11.2%. For the same compound, the PT (15 mg/kg, 3 h, dose level Low) was 12.5 s, the RBC (15 mg/kg, 3 h, dose level Low) was 636 x10_4/ul and the Ret (15 mg/kg, 3 h, dose level Low) was 8.4%. The WBC (15 mg/kg, 3 h, dose level Low) was 99.2 x10_2/uL, the KIDNEY_L (15 mg/kg, 3 h, dose level Low) was 1 g and the KIDNEY_R (15 mg/kg, 3 h, dose level Low) was 1 g. For the same compound, the KIDNEY_TOTAL (15 mg/kg, 3 h, dose level Low) was 2 g, the ALP (15 mg/kg, 3 h, dose level Low) was 884.4 IU/L and the ALT (15 mg/kg, 3 h, dose level Low) was 35.4 IU/L. For the same compound, the AST (15 mg/kg, 3 h, dose level Low) was 64.4 IU/L, the BUN (15 mg/kg, 3 h, dose level Low) was 12.4 mg/dL and the CRE (15 mg/kg, 3 h, dose level Low) was 0.5 mg/dL. The Ca (15 mg/kg, 3 h, dose level Low) was 11.3 mg/dL, the DBIL (15 mg/kg, 3 h, dose level Low) was 0.086 mg/dL and the GLC (15 mg/kg, 3 h, dose level Low) was 183.8 mg/dL. It also gave a K (15 mg/kg, 3 h, dose level Low) of 4.9 meq/L, an LDH (15 mg/kg, 3 h, dose level Low) of 115.4 IU/L and a Na (15 mg/kg, 3 h, dose level Low) of 139.2 meq/L. The PL (15 mg/kg, 3 h, dose level Low) was 132.8 mg/dL, the RALB (15 mg/kg, 3 h, dose level Low) was 3.7 g/dL and the TBIL (15 mg/kg, 3 h, dose level Low) was 0.4 mg/dL. For the same compound, the TC (15 mg/kg, 3 h, dose level Low) was 73.4 mg/dL, the TG (15 mg/kg, 3 h, dose level Low) was 54.6 mg/dL and the TP (15 mg/kg, 3 h, dose level Low) was 5.5 g/dL. It also gave a gamma-GTP (15 mg/kg, 3 h, dose level Low) of 1.6 IU/L, a TERMINAL_BW (15 mg/kg, 6 h, dose level Low) of 209.5 g and an APTT (15 mg/kg, 6 h, dose level Low) of 16.8 s. For the same compound, the Bas (15 mg/kg, 6 h, dose level Low) was 0%, the Eos (15 mg/kg, 6 h, dose level Low) was 0.4% and the Fbg (15 mg/kg, 6 h, dose level Low) was 206.8 mg/dL. For the same compound, the Hb (15 mg/kg, 6 h, dose level Low) was 13.6 g/dL, the Ht (15 mg/kg, 6 h, dose level Low) was 40.5% and the Lym (15 mg/kg, 6 h, dose level Low) was 79%. The MCH (15 mg/kg, 6 h, dose level Low) was 21.8 pg, the MCHC (15 mg/kg, 6 h, dose level Low) was 33.5% and the MCV (15 mg/kg, 6 h, dose level Low) was 65.3 fL. It also gave a Mono (15 mg/kg, 6 h, dose level Low) of 6.2%, a Neu (15 mg/kg, 6 h, dose level Low) of 14.2% and a PT (15 mg/kg, 6 h, dose level Low) of 12.4 s. The Plat (15 mg/kg, 6 h, dose level Low) was 109.1 x10_4/uL, the RBC (15 mg/kg, 6 h, dose level Low) was 620.2 x10_4/ul and the Ret (15 mg/kg, 6 h, dose level Low) was 8.1%. The WBC (15 mg/kg, 6 h, dose level Low) was 101.3 x10_2/uL, the KIDNEY_L (15 mg/kg, 6 h, dose level Low) was 1 g and the KIDNEY_R (15 mg/kg, 6 h, dose level Low) was 1 g. For the same compound, the KIDNEY_TOTAL (15 mg/kg, 6 h, dose level Low) was 2 g, the LIVER (15 mg/kg, 6 h, dose level Low) was 9.6 g and the ALP (15 mg/kg, 6 h, dose level Low) was 695 IU/L. The ALT (15 mg/kg, 6 h, dose level Low) was 30 IU/L, the AST (15 mg/kg, 6 h, dose level Low) was 58 IU/L and the BUN (15 mg/kg, 6 h, dose level Low) was 11 mg/dL. It also gave a CRE (15 mg/kg, 6 h, dose level Low) of 0.5 mg/dL, a Ca (15 mg/kg, 6 h, dose level Low) of 11.4 mg/dL and a DBIL (15 mg/kg, 6 h, dose level Low) of 0.024 mg/dL. It also gave a GLC (15 mg/kg, 6 h, dose level Low) of 187 mg/dL, an IP (15 mg/kg, 6 h, dose level Low) of 10.1 mg/dL and a K (15 mg/kg, 6 h, dose level Low) of 4.8 meq/L. The LDH (15 mg/kg, 6 h, dose level Low) was 74.8 IU/L, the Na (15 mg/kg, 6 h, dose level Low) was 138.4 meq/L and the PL (15 mg/kg, 6 h, dose level Low) was 126.6 mg/dL. For the same compound, the RALB (15 mg/kg, 6 h, dose level Low) was 3.7 g/dL, the TBIL (15 mg/kg, 6 h, dose level Low) was 0.3 mg/dL and the TC (15 mg/kg, 6 h, dose level Low) was 67.6 mg/dL. The TG (15 mg/kg, 6 h, dose level Low) was 60.8 mg/dL, the TP (15 mg/kg, 6 h, dose level Low) was 5.5 g/dL and the gamma-GTP (15 mg/kg, 6 h, dose level Low) was 1 IU/L. For the same compound, the TERMINAL_BW (15 mg/kg, 9 h, dose level Low) was 204 g, the APTT (15 mg/kg, 9 h, dose level Low) was 16.6 s and the Bas (15 mg/kg, 9 h, dose level Low) was 0%. For the same compound, the Eos (15 mg/kg, 9 h, dose level Low) was 1.2%, the Fbg (15 mg/kg, 9 h, dose level Low) was 221.6 mg/dL and the Hb (15 mg/kg, 9 h, dose level Low) was 13.6 g/dL. For the same compound, the Ht (15 mg/kg, 9 h, dose level Low) was 40.7%, the Lym (15 mg/kg, 9 h, dose level Low) was 66.4% and the MCH (15 mg/kg, 9 h, dose level Low) was 21.7 pg. For the same compound, the MCHC (15 mg/kg, 9 h, dose level Low) was 33.4%, the MCV (15 mg/kg, 9 h, dose level Low) was 65 fL and the Mono (15 mg/kg, 9 h, dose level Low) was 11.8%. The Neu (15 mg/kg, 9 h, dose level Low) was 20.4%, the PT (15 mg/kg, 9 h, dose level Low) was 12.3 s and the RBC (15 mg/kg, 9 h, dose level Low) was 626.6 x10_4/ul. The Ret (15 mg/kg, 9 h, dose level Low) was 7.9%, the WBC (15 mg/kg, 9 h, dose level Low) was 92.7 x10_2/uL and the KIDNEY_L (15 mg/kg, 9 h, dose level Low) was 1 g. It also gave a KIDNEY_R (15 mg/kg, 9 h, dose level Low) of 1 g, a KIDNEY_TOTAL (15 mg/kg, 9 h, dose level Low) of 1.9 g and an LIVER (15 mg/kg, 9 h, dose level Low) of 9.1 g. For the same compound, the ALP (15 mg/kg, 9 h, dose level Low) was 837 IU/L, the ALT (15 mg/kg, 9 h, dose level Low) was 27.6 IU/L and the AST (15 mg/kg, 9 h, dose level Low) was 58.8 IU/L. It also gave a BUN (15 mg/kg, 9 h, dose level Low) of 13 mg/dL, a CRE (15 mg/kg, 9 h, dose level Low) of 0.4 mg/dL and a DBIL (15 mg/kg, 9 h, dose level Low) of 0.042 mg/dL. It also gave a GLC (15 mg/kg, 9 h, dose level Low) of 198.8 mg/dL, a K (15 mg/kg, 9 h, dose level Low) of 4.8 meq/L and an LDH (15 mg/kg, 9 h, dose level Low) of 74.6 IU/L. The Na (15 mg/kg, 9 h, dose level Low) was 138.6 meq/L, the PL (15 mg/kg, 9 h, dose level Low) was 129.8 mg/dL and the RALB (15 mg/kg, 9 h, dose level Low) was 3.8 g/dL. The TBIL (15 mg/kg, 9 h, dose level Low) was 0.3 mg/dL, the TC (15 mg/kg, 9 h, dose level Low) was 69.2 mg/dL and the TG (15 mg/kg, 9 h, dose level Low) was 53.2 mg/dL. The TP (15 mg/kg, 9 h, dose level Low) was 5.7 g/dL, the gamma-GTP (15 mg/kg, 9 h, dose level Low) was 1.4 IU/L and the TERMINAL_BW (15 mg/kg, 24 h, dose level Low) was 224.8 g. For the same compound, the APTT (15 mg/kg, 24 h, dose level Low) was 16.1 s, the Bas (15 mg/kg, 24 h, dose level Low) was 0% and the Eos (15 mg/kg, 24 h, dose level Low) was 1.2%. For the same compound, the Fbg (15 mg/kg, 24 h, dose level Low) was 213.8 mg/dL, the Hb (15 mg/kg, 24 h, dose level Low) was 13.6 g/dL and the Ht (15 mg/kg, 24 h, dose level Low) was 40.8%. For the same compound, the Lym (15 mg/kg, 24 h, dose level Low) was 79.4%, the MCH (15 mg/kg, 24 h, dose level Low) was 21.8 pg and the MCHC (15 mg/kg, 24 h, dose level Low) was 33.3%. It also gave an MCV (15 mg/kg, 24 h, dose level Low) of 65.4 fL, a Mono (15 mg/kg, 24 h, dose level Low) of 7.2% and a Neu (15 mg/kg, 24 h, dose level Low) of 12.4%. It also gave a PT (15 mg/kg, 24 h, dose level Low) of 12.2 s, a Plat (15 mg/kg, 24 h, dose level Low) of 113.4 x10_4/uL and an RBC (15 mg/kg, 24 h, dose level Low) of 623 x10_4/ul. It also gave a Ret (15 mg/kg, 24 h, dose level Low) of 7.9%, a WBC (15 mg/kg, 24 h, dose level Low) of 93.3 x10_2/uL and a KIDNEY_L (15 mg/kg, 24 h, dose level Low) of 1 g. It also gave a KIDNEY_R (15 mg/kg, 24 h, dose level Low) of 1 g, a KIDNEY_TOTAL (15 mg/kg, 24 h, dose level Low) of 2 g and an ALP (15 mg/kg, 24 h, dose level Low) of 884.8 IU/L. For the same compound, the ALT (15 mg/kg, 24 h, dose level Low) was 33.2 IU/L, the AST (15 mg/kg, 24 h, dose level Low) was 61.6 IU/L and the BUN (15 mg/kg, 24 h, dose level Low) was 17.8 mg/dL. For the same compound, the CRE (15 mg/kg, 24 h, dose level Low) was 0.5 mg/dL, the DBIL (15 mg/kg, 24 h, dose level Low) was 0.024 mg/dL and the GLC (15 mg/kg, 24 h, dose level Low) was 187.4 mg/dL. It also gave an IP (15 mg/kg, 24 h, dose level Low) of 8 mg/dL, a K (15 mg/kg, 24 h, dose level Low) of 5 meq/L and an LDH (15 mg/kg, 24 h, dose level Low) of 85.2 IU/L. The Na (15 mg/kg, 24 h, dose level Low) was 138.8 meq/L, the PL (15 mg/kg, 24 h, dose level Low) was 149.8 mg/dL and the RALB (15 mg/kg, 24 h, dose level Low) was 3.6 g/dL. It also gave a TBIL (15 mg/kg, 24 h, dose level Low) of 0.3 mg/dL, a TC (15 mg/kg, 24 h, dose level Low) of 78 mg/dL and a TG (15 mg/kg, 24 h, dose level Low) of 91.4 mg/dL. The TP (15 mg/kg, 24 h, dose level Low) was 5.7 g/dL, the gamma-GTP (15 mg/kg, 24 h, dose level Low) was 1.8 IU/L and the TERMINAL_BW [1] was 210.9 g. For the same compound, the APTT [1] was 16.6 s and the Bas [1] was 0%.
